The record followed here is US20240190854A1, “PYRIMIDINE OR PYRIDINE DERIVATIVES USEFUL AS HCN2 MODULATORS” (King's College London, priority 2021, published 2024).

One data set deals with hNav1.5 (Homo sapiens (Human), UniProt Q14524).
A further data set deals with HCN2 (Homo sapiens (Human), UniProt Q9UL51). Description: HCN2 current assay using PatchXpress 7000A. The format is cell-based. The note with it: PatchXpress protocol; read-out: PX HCN2 IC50. The method, then:
(§1) Example 126A, Using PatchXpress 7000A
(§2) Solutions for recording HCN currents were:
The membrane voltage was then stepped back to −30 mV for a further 8 seconds.
(§3) The peak inward current measured at the end of the pulse to −110 mV (HCN1 and HCN2) or −130 mV (HCN4) was measured and any leak current subtracted to calculate the HCN current. The HCN current amplitude was measured after each control or compound addition and normalized to the control amplitude (Control A).
(§4) All experiments were performed at room temperature (approximately 22° C.).
(§5) Each test compound concentration was applied to the cell for seven (7) minutes, at which point the next cumulative concentration was applied.

A further data set has as its target hERG channel (Homo sapiens (Human), UniProt Q12809). Description: hERG assay using IonWorks Quattro. The format is cell-based. The note with it: IonWorks protocol; read-out: IW hERG IC50. The method, then: Example 127A, Using IonWorks Quattro
Solutions for recording hERG currents were:
This was followed by a […] step of is to −30 mV to evoke the hERG tail current. This sequence was repeated 5 times at a frequency of 0.25 Hz (see FIG. 3). Currents were measured from the tail step at the 5th pulse and referenced to the holding current. Compounds were then incubated for 6-7 minutes prior to a second measurement of the hERG signal using an identical pulse train.
In general terms: Block of hERG is tested as a sign of cardiac risk.

Another data set concerns the target HCN4 (Homo sapiens (Human), UniProt Q9Y3Q4). Description: HCN4 current assay using PatchXpress 7000A. Format: cell-based. Conditions: PatchXpress protocol; read-out: PX HCN4 IC50. The method, then: as §1, §2, §3, §4, §5

Where a name gives a salt, the structure may show the parent alone. Bounds are passed on as bounds.

Broadly, the IC50 is the point on the concentration scale where inhibition reaches its midpoint.

HCN4, sequence (Q9Y3Q4 whole entry, species assumed): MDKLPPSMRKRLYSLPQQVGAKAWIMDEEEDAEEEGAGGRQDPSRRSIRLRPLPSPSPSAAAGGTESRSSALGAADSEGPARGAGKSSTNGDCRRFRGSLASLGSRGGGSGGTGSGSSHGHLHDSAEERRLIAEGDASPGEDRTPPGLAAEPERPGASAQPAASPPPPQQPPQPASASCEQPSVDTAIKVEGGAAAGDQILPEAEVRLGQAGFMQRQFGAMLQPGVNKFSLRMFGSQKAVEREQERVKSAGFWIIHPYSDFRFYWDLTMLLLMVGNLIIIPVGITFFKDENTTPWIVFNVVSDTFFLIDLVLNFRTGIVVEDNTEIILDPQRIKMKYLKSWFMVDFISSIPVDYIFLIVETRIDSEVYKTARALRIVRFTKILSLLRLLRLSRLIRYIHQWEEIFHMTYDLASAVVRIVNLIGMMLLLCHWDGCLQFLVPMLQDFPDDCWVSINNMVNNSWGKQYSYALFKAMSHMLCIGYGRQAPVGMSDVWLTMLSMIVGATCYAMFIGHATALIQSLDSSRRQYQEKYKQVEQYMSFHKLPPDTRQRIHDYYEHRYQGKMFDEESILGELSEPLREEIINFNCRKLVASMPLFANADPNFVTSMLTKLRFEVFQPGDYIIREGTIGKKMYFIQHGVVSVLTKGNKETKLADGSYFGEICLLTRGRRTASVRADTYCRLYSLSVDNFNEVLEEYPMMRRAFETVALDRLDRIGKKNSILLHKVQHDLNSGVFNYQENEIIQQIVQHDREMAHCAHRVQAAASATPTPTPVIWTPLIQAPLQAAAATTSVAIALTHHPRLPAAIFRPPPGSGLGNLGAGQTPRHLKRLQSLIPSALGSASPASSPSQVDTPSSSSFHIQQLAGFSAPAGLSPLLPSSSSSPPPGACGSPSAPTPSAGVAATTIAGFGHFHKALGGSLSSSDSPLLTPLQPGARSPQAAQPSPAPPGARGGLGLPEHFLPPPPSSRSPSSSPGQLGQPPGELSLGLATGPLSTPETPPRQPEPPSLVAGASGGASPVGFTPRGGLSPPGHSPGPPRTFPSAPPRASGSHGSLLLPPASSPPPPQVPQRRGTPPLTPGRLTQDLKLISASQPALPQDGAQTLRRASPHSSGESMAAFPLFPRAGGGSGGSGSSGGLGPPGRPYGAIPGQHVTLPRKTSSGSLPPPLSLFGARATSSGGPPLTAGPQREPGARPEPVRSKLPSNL
hNav1.5, sequence (Q14524 whole entry): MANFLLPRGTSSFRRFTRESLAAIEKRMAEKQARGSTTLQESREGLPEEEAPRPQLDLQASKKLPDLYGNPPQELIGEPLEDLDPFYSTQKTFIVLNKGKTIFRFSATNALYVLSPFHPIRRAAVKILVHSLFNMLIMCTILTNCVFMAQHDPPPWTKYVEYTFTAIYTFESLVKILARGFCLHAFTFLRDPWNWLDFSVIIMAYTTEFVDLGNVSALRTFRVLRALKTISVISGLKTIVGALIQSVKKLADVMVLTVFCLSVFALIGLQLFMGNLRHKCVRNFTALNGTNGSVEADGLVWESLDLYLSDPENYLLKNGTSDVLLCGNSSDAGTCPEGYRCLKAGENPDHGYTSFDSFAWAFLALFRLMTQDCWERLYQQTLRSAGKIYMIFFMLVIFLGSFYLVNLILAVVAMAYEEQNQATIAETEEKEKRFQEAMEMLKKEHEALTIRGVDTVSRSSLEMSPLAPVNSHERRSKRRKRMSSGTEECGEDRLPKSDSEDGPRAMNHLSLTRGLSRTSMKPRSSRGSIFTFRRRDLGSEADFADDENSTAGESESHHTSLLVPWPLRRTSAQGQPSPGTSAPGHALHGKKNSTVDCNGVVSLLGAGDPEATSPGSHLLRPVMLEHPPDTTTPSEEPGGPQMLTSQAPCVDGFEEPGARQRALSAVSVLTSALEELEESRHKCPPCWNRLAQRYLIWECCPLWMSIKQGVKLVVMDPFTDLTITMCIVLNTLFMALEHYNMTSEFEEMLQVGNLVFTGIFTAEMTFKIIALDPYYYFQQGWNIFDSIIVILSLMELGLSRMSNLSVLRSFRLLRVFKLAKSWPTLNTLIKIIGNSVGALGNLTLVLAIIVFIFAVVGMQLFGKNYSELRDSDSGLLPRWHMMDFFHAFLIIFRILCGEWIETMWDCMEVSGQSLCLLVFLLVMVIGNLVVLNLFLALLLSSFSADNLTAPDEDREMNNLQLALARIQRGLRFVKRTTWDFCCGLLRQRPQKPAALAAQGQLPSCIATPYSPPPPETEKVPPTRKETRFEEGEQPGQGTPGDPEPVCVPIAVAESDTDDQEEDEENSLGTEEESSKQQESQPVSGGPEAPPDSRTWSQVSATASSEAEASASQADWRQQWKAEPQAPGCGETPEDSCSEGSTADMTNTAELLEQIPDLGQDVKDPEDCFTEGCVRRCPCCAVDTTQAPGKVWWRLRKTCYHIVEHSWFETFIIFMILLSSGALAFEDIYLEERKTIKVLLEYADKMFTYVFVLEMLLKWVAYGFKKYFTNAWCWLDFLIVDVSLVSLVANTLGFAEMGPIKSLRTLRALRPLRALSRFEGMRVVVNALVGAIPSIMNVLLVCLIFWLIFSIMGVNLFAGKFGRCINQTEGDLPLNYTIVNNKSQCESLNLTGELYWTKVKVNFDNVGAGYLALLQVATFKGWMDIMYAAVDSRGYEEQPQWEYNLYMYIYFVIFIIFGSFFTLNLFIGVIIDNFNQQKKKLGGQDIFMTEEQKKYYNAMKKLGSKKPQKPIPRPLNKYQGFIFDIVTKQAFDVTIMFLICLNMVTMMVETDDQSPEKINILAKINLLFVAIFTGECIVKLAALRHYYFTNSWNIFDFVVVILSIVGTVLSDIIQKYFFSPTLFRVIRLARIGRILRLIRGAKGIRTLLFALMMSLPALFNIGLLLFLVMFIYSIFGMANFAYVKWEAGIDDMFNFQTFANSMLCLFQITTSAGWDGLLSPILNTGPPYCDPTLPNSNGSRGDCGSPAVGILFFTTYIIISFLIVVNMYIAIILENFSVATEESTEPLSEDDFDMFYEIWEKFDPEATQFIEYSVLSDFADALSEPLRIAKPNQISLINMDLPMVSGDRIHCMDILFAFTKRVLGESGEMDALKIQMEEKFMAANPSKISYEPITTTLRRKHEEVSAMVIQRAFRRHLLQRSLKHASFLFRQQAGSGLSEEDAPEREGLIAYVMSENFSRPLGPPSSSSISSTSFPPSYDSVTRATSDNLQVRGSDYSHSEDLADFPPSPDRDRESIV
HCN2, sequence (Q9UL51 whole entry): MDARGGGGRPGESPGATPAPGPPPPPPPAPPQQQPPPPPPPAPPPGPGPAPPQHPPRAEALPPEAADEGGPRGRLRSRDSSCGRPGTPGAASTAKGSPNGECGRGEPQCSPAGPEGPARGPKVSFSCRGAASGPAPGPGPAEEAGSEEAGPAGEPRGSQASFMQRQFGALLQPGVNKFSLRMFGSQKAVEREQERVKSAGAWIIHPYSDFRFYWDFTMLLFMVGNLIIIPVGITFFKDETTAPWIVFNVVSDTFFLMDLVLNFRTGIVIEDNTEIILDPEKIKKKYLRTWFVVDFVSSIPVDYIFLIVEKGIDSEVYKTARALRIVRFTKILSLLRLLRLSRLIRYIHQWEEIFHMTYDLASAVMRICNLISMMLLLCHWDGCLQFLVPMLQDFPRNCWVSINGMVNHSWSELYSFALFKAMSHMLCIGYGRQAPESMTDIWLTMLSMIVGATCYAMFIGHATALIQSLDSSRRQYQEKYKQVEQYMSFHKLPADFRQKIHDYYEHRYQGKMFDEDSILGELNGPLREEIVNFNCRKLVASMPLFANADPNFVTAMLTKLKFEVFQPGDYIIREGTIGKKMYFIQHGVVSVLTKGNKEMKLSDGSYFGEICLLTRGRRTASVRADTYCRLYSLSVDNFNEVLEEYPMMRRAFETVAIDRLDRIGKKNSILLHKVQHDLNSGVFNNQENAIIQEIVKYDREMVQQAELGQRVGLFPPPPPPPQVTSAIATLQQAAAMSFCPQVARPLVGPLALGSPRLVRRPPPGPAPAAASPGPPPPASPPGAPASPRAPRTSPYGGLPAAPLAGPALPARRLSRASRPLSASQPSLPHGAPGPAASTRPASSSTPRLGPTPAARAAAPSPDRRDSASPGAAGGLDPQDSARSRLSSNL

Consider `Cc1ccc2c(-c3ccccc3[C@@H](N)Cc3ccccn3)noc2c1` [Example 33, (S)-1-[2-(6-Methylbenzo[d]isoxazol-3-yl)phenyl]-2-(pyridine-2-yl)ethan-1-amine], for which the IC50 against hNav1.5 was 8.8 µM; at HCN2, 1700 nM; on hERG channel, 4.4 µM; at HCN4, over 30 µM.

In the case of `N[C@@H](Cc1ccccn1)c1ccccc1-c1noc2cc(CCO)ccc12` [Example 40, (S)-1-[2-(6-[2-Hydroxyethyl]benzo[d]isoxazol-3-yl)phenyl]-2-(pyridine-2-yl)ethan-1-amine], the figures for the IC50 on hNav1.5, at HCN2 and at hERG channel were over 33 µM, 15600 nM and 7.8 µM, respectively.

Consider `N[C@@H](Cc1cccc(Br)n1)c1ccccc1-c1noc2ccccc12` [Example 44, (S)-1-[2-(benzo[d]isoxazol-3-yl)phenyl]-2-(6-bromopyridine-2-yl)ethan-1-amine], for which the IC50 against hNav1.5 is 3.7 µM; on HCN2 it was 1200 nM; on hERG channel, 12.8 µM; at HCN4, 7.2 µM.

Consider `CC[C@@H](c1ccccn1)[C@H](N)c1ccccc1-c1noc2ccccc12` [Example 46, (1S,2R)-1-[2-(benzo[d]isoxazol-3-yl)phenyl]-2-(pyridin-2-yl)butan-1-amine hydrochloride], for which the IC50 on hNav1.5 was 1.3 µM; at HCN2, 3000 nM; on hERG channel, 8.2 µM; on HCN4, over 30 µM.

As to `Cc1cccnc1C[C@H](N)c1ccccc1-c1noc2ccccc12` [Example 47, (S)-1-[2-(Benzo[d]isoxazol-3-yl)phenyl]-2-(3-methylpyridine-2-yl)ethan-1-amine hydrochloride], the half-maximal inhibitory concentration (IC50) against hNav1.5 is 5.8 µM; on HCN2, 600 nM; at hERG channel it was 2.8 µM; at HCN4 it was over 30 µM.

For the compound `CC(C)C(c1ccccn1)[C@H](N)c1ccccc1-c1noc2ccccc12` (stereo partly drawn) [Example 48, (S)-1-[2-(Benzo[d]isoxazol-3-yl)phenyl]-3-methyl-2-(pyridine-2-yl)butan-1-amine hydrochloride], the IC50 against hNav1.5 was 5.3 µM; on HCN2, 5400 nM; at hERG channel, 16 µM; at HCN4, over 30 µM.

For `CC(C)(c1ccccn1)[C@H](N)c1ccccc1-c1noc2ccccc12` [Example 49, (R)-1-[2-(Benzo[d]isoxazol-3-yl)phenyl]-2-methyl-2-(pyridine-2-yl)propane-1-amine hydrochloride], the IC50 is 3.8 µM on hNav1.5, 6500 nM on HCN2, 5.2 µM on hERG channel and 22.6 µM on HCN4.

On to `COCCNc1cccc(C[C@H](N)c2ccccc2-c2noc3ccccc23)n1` [Example 52, (S)-6-{2-Amino-2-[2-(benzo[d]isoxazol-3-yl)phenyl]ethyl}-N-(2-methoxyethyl)pyridin-2-amine hydrochloride], for which the IC50 on hNav1.5 is 1.6 µM; on HCN2 it was 1600 nM; on hERG channel, 1.2 µM; on HCN4, 6 µM.

`Cc1cccc(C[C@H](N)c2ccccc2-c2nn(C)c3ccccc23)n1` [Example 61, (S)-1-[2-(1-Methyl-1H-indazole-3-yl)phenyl]-2-(6-methylpyridine-2-yl)ethan-1-amine hydrochloride]: the IC50 against hNav1.5 was 6.7 µM; on HCN2, 3500 nM; at hERG channel it was 0.46 µM; on HCN4 it was over 30 µM.

On to `Cc1cccc(C[C@H](N)c2ccccc2-c2nn(C(C)C)c3ccccc23)n1` [Example 66, (S)-1-[2-(1-Isopropyl-1H-indazole-3-yl)phenyl]-2-(6-methylpyridine-2-yl)ethan-1-amine hydrochloride], for which the IC50 at HCN2 was found to be 900 nM; at HCN4 it was 6.8 µM.

For `N[C@@H](Cc1nc(-c2cn[nH]c2)ccc1F)c1ccccc1-c1noc2ccccc12` [Example 78, (S)-1-[2-(Benzo[d]isoxazol-3-yl)phenyl]-2-[3-fluoro-6-(1H-pyrazol-4-yl)pyridin-2-yl)ethan-1-amine hydrochloride], the values for the IC50 at hNav1.5, at hERG channel and on HCN4 were 6.4 µM, 7.6 µM and 8.3 µM, respectively.

As for `N#Cc1ccc(C[C@H](N)c2ccccc2-c2noc3cc(Br)ccc23)nc1` [Example 81, (S)-1-[2-(6-Bromobenzo[d]isoxazol-3-yl)phenyl]-2-(5-cyanopyridine-2-yl)ethan-1-amine], the half-inhibitory concentration (IC50) at HCN2 was 10800 nM; at HCN4 it was over 30 µM.

Consider `N[C@@H](Cc1ccccn1)c1cc(Br)ccc1-c1noc2ccccc12` [Example 83, (S)-1-[2-(benzo[d]isoxazol-3-yl)-5-bromophenyl]-2-(pyridine-2-yl)ethan-1-amine], for which the IC50 at HCN2 is 1800 nM; at HCN4 it was over 30 µM.

Turning to `N[C@@H](Cc1ccccn1)c1c(Br)cccc1-c1noc2ccccc12` [Example 87, (S)-1-[2-(Benzo[d]isoxazol-3-yl)-6-bromophenyl]-2-(pyridine-2-yl)ethan-1-amine hydrochloride], the IC50 was 1700 nM on HCN2 and 18.8 µM on HCN4.

On to `N[C@@H](Cc1ccc(Br)cn1)c1ccccc1-c1noc2ccccc12` [Example 88, (S)-1-[2-(Benzo[d]isoxazol-3-yl)phenyl]-2-(5-bromopyridine-2-yl)ethan-1-amine hydrochloride], for which the half-maximal inhibitory concentration (IC50) on HCN2 is 2700 nM; on HCN4, over 30 µM.

In the case of `Cc1noc(C)c1-c1cccc(C[C@H](N)c2ccccc2-c2noc3ccccc23)n1` [Example 94, (S)-1-[2-(Benzo[d]isoxazol-3-yl)phenyl]-2-[6-(3,5-dimethylisoxazol-4-yl)pyridine-2-yl)-ethan-1-amine hydrochloride], the IC50 at HCN2 amounted to 1200 nM; at HCN4, 4.7 µM.

Consider `Cc1cccc(C[C@H](N)c2ccccc2-c2noc3cc(C#N)ccc23)n1` [Example 96, (S)-1-[2-(6-Cyanobenzo[d]isoxazol-3-yl)phenyl]-2-(6-methylpyridine-2-yl)ethan-1-amine], for which the concentration for half-maximal inhibition (IC50) on HCN2 is 2900 nM; on HCN4, over 30 µM.

Consider `N[C@@H](Cc1cccc(CO)n1)c1ccccc1-c1noc2ccccc12` [Example 98, (S)-1-[2-(Benzo[d]isoxazol-3-yl)phenyl]-2-(6-hydroxymethylpyridine-2-yl)ethan-1-amine hydrochloride], for which the IC50 was 2000 nM on HCN2 and 13.2 µM on HCN4.

Take `CS(=O)(=O)c1cccc(C[C@H](N)c2ccccc2-c2noc3ccccc23)n1` [Example 103, (S)-1-[2-(Benzo[d]isoxazol-3-yl)phenyl]-2-[6-(methylsulfonyl)pyridin-2-yl]ethan-1-amine]: the results for the IC50 on HCN2 and on HCN4 were 3000 nM and 22.4 µM, respectively.

For the compound `NC(=O)c1cccc(C[C@H](N)c2ccccc2-c2noc3ccccc23)n1` [Example 104, (S)-6-{2-Amino-2-[2-(benzo[d]isoxazol-3-yl)phenyl]ethyl}pyridine-2-carboxamide hydrochloride], the results for the IC50 on HCN2 and on HCN4 were 2600 nM and 10.4 µM, respectively.

`CNC(=O)c1cccc(C[C@H](N)c2ccccc2-c2noc3ccccc23)n1` [Example 105, (S)-6-{2-Amino-2-[2-(benzo[d]isoxazol-3-yl)phenyl]ethyl}-N-methylpyridine-2-carboxamide hydrochloride]: the results for the IC50 on HCN2 and on HCN4 were 4200 nM and 6.2 µM, respectively.

For `N[C@@H](Cc1cccc(C(=O)N2CCOCC2)n1)c1ccccc1-c1noc2ccccc12` [Example 106, (S)-(6-{2-Amino-2-[2-(benzo[d]isoxazol-3-yl)phenyl]ethyl}pyridine-2-yl)(morpholino)methanone hydrochloride], the IC50 on HCN2 was 8500 nM; on HCN4 it was over 30 µM.

For `N[C@@H](Cc1cccc(C(=O)NCC2CC2)n1)c1ccccc1-c1noc2ccccc12` [Example 107, (S)-6-{2-Amino-2-[2-(benzo[d]isoxazol-3-yl)phenyl]ethyl}-N-(cyclopropylmethylpyridine-2-carboxamide hydrochloride], the IC50 came to 1400 nM at HCN2 and 3.2 µM on HCN4.

`COCCNC(=O)c1cccc(C[C@H](N)c2ccccc2-c2noc3ccccc23)n1` [Example 108, (S)-6-{2-[Amino-2-(benzo[d]isoxazol-3-yl)phenyl]ethyl}-N-(2-methoxyethyl)pyridine-2-carboxamide hydrochloride]: the half-maximal inhibitory concentration (IC50) on HCN2 was 3500 nM; at HCN4 it was 5.1 µM.

`N#Cc1cccc(C[C@H](N)c2c(F)cccc2-c2noc3ccccc23)n1` [Example 110, (S)-6-{2-Amino-2-[2-(benzo[d]isoxazol-3-yl)-6-fluorophenyl]ethyl}-2-cyanopyridine hydrochloride]: the IC50 at hNav1.5 was over 33 µM; on HCN2 it was 2600 nM; at HCN4, 15.1 µM.

As to `CNC(=O)Nc1cccc(C[C@H](N)c2ccccc2-c2noc3ccccc23)n1` [Example 122, (S)-1-(6-{2-Amino-2-[2-(benzo[d]isoxazol-3-yl)phenyl]ethyl}pyridine-2-yl)-3-methylurea hydrochloride], the IC50 at HCN2 was found to be 9500 nM; at HCN4, 28.1 µM.

As for `CS(=O)(=O)Nc1cccc(C[C@H](N)c2ccccc2-c2noc3ccccc23)n1` [Example 123, (S)—N-(6-{2-Amino-2-[2-(benzo[d]isoxazol-3-yl)phenyl]ethyl}pyridine-2-yl)methanesulfonamide hydrochloride], the figures for the IC50 at HCN2 and on HCN4 were 5900 nM and over 30 µM, respectively.
